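1) Cells in 96-well plates. 2) Compound, 48 h, 5 concentrations. 3) Linear interpolation between surrounding doses. 4) Unreached endpoint = highest concentration. TGI: total growth inhibition.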
Experiments:
Assay in all cases: NCI anticancer screen, dose series, 48 h
[1] = tested on: NCI-H226 lung
[2] = tested on: A498 renal
[3] = tested on: MDA-N
[4] = tested on: DU-145 prostate
[5] = tested on: SK-MEL-2 melanoma
[6] = tested on: SK-MEL-5 melanoma
[7] = tested on: MDA-MB-231 breast
[8] = tested on: M14 melanoma
[9] = tested on: OVCAR-4 ovarian
[10] = tested on: NCI/ADR-RES ovarian
[11] = tested on: SNB-75 CNS
[12] = tested on: OVCAR-5 ovarian

Row | SMILES | TGI [1] [µM] | TGI [2] [µM] | TGI [3] [µM] | TGI [4] [µM] | TGI [5] [µM] | TGI [6] [µM] | TGI [7] [µM] | TGI [8] [µM] | TGI [9] [µM] | TGI [10] [µM] | TGI [11] [µM] | TGI [12] [µM]
1 | O=C(O)CSc1ccccc1C(=O)O | > 100 | > 100 | > 100 | > 100 | > 100 | > 100 | > 100 | > 100 | > 100 | > 100 | > 100 | > 100
2 | CC(=O)O[C@H]1CC[C@@]2(C)C(=CC[C@@H]3[C@@H]2CC[C@]2(C)C(=N/O)/C(=C\c4ccccc4)C[C@@H]32)C1 | 44.9 | 33 | 99.4 | > 91 | 39.2 | 11.4 | 73.2 | 39.3 | > 100 | > 72.9 | > 100 | 70.2
3 | COC(C/C(=C/CO[Si](C(C)C)(C(C)C)C(C)C)C(=O)N(COCC[Si](C)(C)C)c1ccccc1I)OC | > 100 | > 100 | > 100 | > 100 | 29.9 | > 100 | > 100 | > 100 | > 100 | > 100 | > 100 | 87.2
4 | Cn1cnc(N)c(N=O)c1=O | > 10 | > 10 | > 10 | > 10 | > 10 | > 10 | > 10 | > 10 | > 10 | > 10 | > 10 | > 10
5 | COc1cc2cc(C(=O)N3CC(COS(C)(=O)=O)c4ccc(NC(=O)OCc5ccccc5)cc43)[nH]c2c(OC)c1OC (centres undefined) | > 100 | > 100 | > 100 | > 100 | > 100 | > 100 | > 100 | > 100 | > 100 | > 100 | > 100 | > 100
6 | O=c1c2c([nH]c3nccn13)CCC2 | > 10 | 8.91 | > 10 | > 10 | > 10 | > 10 | > 10 | > 10 | > 10 | > 10 | > 10 | > 10
7 | O=c1[nH]nc(-c2ccccc2)n1/N=C/c1ccc([N+](=O)[O-])o1 | 37.5 | 23 | 12 | 17.5 | 11.6 | 28.9 | 19.5 | 11.2 | 16.7 | > 26 | > 70.2 | 31.5
8 | CC(=O)n1cc(C2CC23N=C(c2ccccc2)OC3=O)c2ccccc21 (centres undefined) | 44.5 | 56.7 | 81.7 | 33.2 | 44.5 | 40.2 | 46.4 | 34.9 | 42.4 | > 56 | 39.6 | 49.7
9 | C=C(C(=O)O[C@H]1C/C(C)=C/CC/C(CO)=C/[C@H]2C(=O)OC(=C)[C@H]12)C(O)CO (some centres undefined) | 37.7 | 32.7 | 25.3 | 33.4 | 29.6 | 29.1 | 33.3 | 28.5 | 46.9 | 48.4 | 34.9 | 33
10 | NNC(=O)Nc1nc2ccc(NN)cc2[nH]1 | 89.8 | 77.3 | > 100 | > 100 | > 100 | 51.9 | > 100 | 84.4 | > 100 | > 100 | 84.2 | > 100
11 | C/C=C(\C)C(=O)OC1CC(OC(C)=O)C2(C(=O)OC)COC3C2C1(C)C1C2(C(=O)OC)OCC1(C3O)C1(O)C3CC(C4(O)C=COC4O3)C1(C)O2 (centres undefined) | > 100 | > 100 | > 100 | > 100 | > 100 | > 100 | > 100 | > 100 | > 100 | > 100 | > 100 | > 100
12 | C[C@@H]1[C@@H](C)C(c2ccccc2)O[Si]1(C(C)(C)C)C(C)(C)C (some centres undefined) | 40.9 | 33.9 | 48.4 | 31.6 | 29.3 | 31.5 | 31.3 | 42.2 | > 86.1 | 33 | 29.9 | 31.4
13 | CCN1C/C(=C\c2ccc(Cl)cc2)c2nc(N)c(C#N)c(-c3ccc(Cl)cc3)c2C1 | > 100 | > 100 | > 100 | > 100 | > 100 | > 100 | > 100 | > 100 | > 100 | > 100 | > 100 | > 100
14 | O=C1c2cc(Cc3ccccc3)c(=O)c(Cc3ccccc3)cc2C(=O)c2cc(Cc3ccccc3)c(=O)c(Cc3ccccc3)cc21 | > 100 | > 100 | > 100 | > 100 | > 100 | > 100 | > 100 | > 100 | > 100 | > 100 | > 100 | > 100
15 | Clc1sc(Cl)c2c1[C@@H](Cl)C[C@@H]2Cl | > 100 | > 100 | > 100 | > 100 | > 100 | > 100 | > 100 | > 100 | > 100 | > 100 | > 100 | > 100
16 | N#Cc1c(-c2ccc(Cl)cc2)cc(-c2ccc(Nc3ccnc4cc(Cl)ccc34)cc2)[nH]c1=O | > 100 | > 88.9 | > 100 | > 100 | > 100 | > 100 | > 67.4 | > 100 | > 100 | > 100 | > 100 | > 100
17 | Cn1cccc1-c1ccc(-c2ccc(CO)[se]2)[se]1 | 5.89 | > 100 | > 100 | 70.1 | > 100 | > 75 | > 79.8 | > 100 | 53.8 | > 81 | 59.5 | > 100
18 | O=C(COc1ccc(OCC(=O)N2C(=O)CC(=O)N(c3ccc(Cl)cc3)C2=S)cc1)N1C(=O)CC(=O)N(c2ccc(Cl)cc2)C1=S | 85.7 | > 100 | 97.2 | > 100 | > 100 | > 100 | > 100 | > 100 | > 100 | 93.4 | > 100 | > 100
19 | O=C(Nc1sccc1S(=O)(=O)c1ccc(Cl)cc1)c1ccc(F)cc1F | > 100 | 51.5 | > 100 | > 100 | 39.5 | > 100 | 54 | > 100 | 53.9 | > 100 | 38.8 | 81.3
20 | COc1cc2ccc(C(=O)NCCCNC(=O)c3ccc4cc(OC)c(OC)cc4c3)cc2cc1OC | > 100 | > 100 | > 100 | > 100 | > 100 | > 100 | > 100 | > 100 | > 100 | > 100 | 95.8 | > 100
21 | C1=NCCNCCNCCN=Cc2ccc(cc2)OCc2cccc(n2)COc2ccc1cc2 | > 100 | > 100 | > 100 | > 100 | > 100 | > 100 | > 100 | > 100 | > 100 | > 100 | > 100 | > 100
22 | CNc1nnc(CCCCCCCCc2nnc(NC)o2)o1 | > 100 | > 100 | > 100 | > 100 | > 100 | > 100 | > 100 | > 100 | > 100 | > 100 | > 100 | > 100
23 | COC(=O)[C@@H]1CS(=O)(=O)C(C(C)C)N1C(C)=O (some centres undefined) | > 100 | > 100 | > 100 | > 100 | > 100 | > 100 | > 100 | > 100 | > 100 | > 100 | > 100 | > 100
24 | O=C1NC(=O)c2ccccc2/C1=C/c1ccc2c(c1)OCO2 | > 100 | > 100 | > 100 | > 100 | 61.4 | 29.8 | 47.5 | 76.5 | > 100 | 69.2 | 86.6 | > 100
25 | CC(C)(C)OC(=O)[C@@H]1CCC(=O)N1C1(c2ccccc2)c2ccccc2-c2ccccc21 | > 100 | > 100 | 96.8 | > 100 | > 100 | 51.9 | 86.1 | > 100 | > 100 | > 100 | > 100 | > 100
26 | CCOC(=O)C1CC(C(=O)c2ccccc2)N2c3ccccc3-c3ccccc3C12 (centres undefined) | > 100 | > 100 | > 100 | > 100 | > 100 | > 100 | > 100 | 74.2 | > 100 | > 100 | > 100 | > 100
27 | CSC(=S)Nc1cc(C)cc(C)n1 | > 31.6 | > 100 | > 31.6 | > 31.6 | > 31.6 | > 100 | > 100 | > 31.6 | > 31.6 | > 31.6 | > 10 | > 31.6

Reference: PubChem BioAssay (NCI)
